# In the supplement of paper PMC13380429:
# How the values were obtained:
# Conditions in all cases: 72 h
# Caco-2 [1] = test: cell viability relative to DMSO; higher = less toxic
# Calu-3 [2] = test: as above
# HepG2 [3] = test: as above
# U2OS [4] = test: as above
# Vero E6 [5] = test: as above
# Caco-2 [6] = test: relative viability EC50 (midpoint between 100% and the lowest measured viability); higher = less toxic
# Calu-3 [7] = test: as above
# HepG2 [8] = test: as above
# U2OS [9] = test: as above
# Vero E6 [10] = test: as above
# Caco-2 [11] = test: drug sensitivity score (DSS) for viability; higher = more toxic; extreme values may be limits of the assay
# Calu-3 [12] = test: as above
# HepG2 [13] = test: as above
# U2OS [14] = test: as above
# Vero E6 [15] = test: as above
Structure (SMILES),cell viability (Caco-2 [1]; 1 nM) [%],cell viability (Caco-2 [1]; 10 nM) [%],cell viability (Caco-2 [1]; 100 nM) [%],cell viability (Caco-2 [1]; 1000 nM) [%],cell viability (Caco-2 [1]; 10000 nM) [%],cell viability (Calu-3 [2]; 1 nM) [%],cell viability (Calu-3 [2]; 10 nM) [%],cell viability (Calu-3 [2]; 100 nM) [%],cell viability (Calu-3 [2]; 1000 nM) [%],cell viability (Calu-3 [2]; 10000 nM) [%],cell viability (HepG2 [3]; 1 nM) [%],cell viability (HepG2 [3]; 10 nM) [%],cell viability (HepG2 [3]; 100 nM) [%],cell viability (HepG2 [3]; 1000 nM) [%],cell viability (HepG2 [3]; 10000 nM) [%],cell viability (U2OS [4]; 1 nM) [%],cell viability (U2OS [4]; 10 nM) [%],cell viability (U2OS [4]; 100 nM) [%],cell viability (U2OS [4]; 1000 nM) [%],cell viability (U2OS [4]; 10000 nM) [%],cell viability (Vero E6 [5]; 1 nM) [%],cell viability (Vero E6 [5]; 10 nM) [%],cell viability (Vero E6 [5]; 100 nM) [%],cell viability (Vero E6 [5]; 1000 nM) [%],cell viability (Vero E6 [5]; 10000 nM) [%],relative viability EC50 (Caco-2 [6]) [µM],relative viability EC50 (Calu-3 [7]) [µM],relative viability EC50 (HepG2 [8]) [µM],relative viability EC50 (U2OS [9]) [µM],relative viability EC50 (Vero E6 [10]) [µM],drug sensitivity score (Caco-2 [11]),drug sensitivity score (Calu-3 [12]),drug sensitivity score (HepG2 [13]),drug sensitivity score (U2OS [14]),drug sensitivity score (Vero E6 [15])
CCN1CCCC1=O [1-ethyl-2-pyrrolidone],93.6,99.6,99.4,88,95.2,97.9,104,104,98.6,104,99.1,99.1,94,99.9,97.2,95.9,98.4,104,95.5,102,103,103,97,97.9,95.3,> 10,> 10,> 10,> 10,> 10,0,0,0,0,0
OC[C@H]1O[C@H](O)C[C@@H](O)[C@@H]1O [2-deoxyglucose],102,66.9,105,86.9,101,108,98.9,111,100,95.5,93.2,96,97.3,106,97.4,100,102,101,99.4,98,93.4,102,90.6,100,110,> 10,> 10,> 10,> 10,> 10,0,0,0,0,0
O=C1CN=C(c2cccc(Br)c2)c2oc3ccccc3c2N1 [5-BDBD],101,96.6,102,106,97,103,97.2,112,96.8,111,98.3,100,94.4,96.8,92.5,104,97.5,95.5,99.7,101,96.7,92.8,94.6,93.5,95.9,> 10,> 10,> 10,> 10,> 10,0,0,0,0,0
O=C(O)c1cc(O)c2ccc(Cl)cc2n1 [7-chlorokynurenic-acid],102,96.1,97.1,99.1,109,99.9,94.1,98.4,98,108,106,104,100,101,97,101,97.6,96.4,94.3,108,96.7,102,94.2,95.3,108,> 10,> 10,> 10,> 10,> 10,0,0,0,0,0
CCCN(C/C=C/I)[C@H]1CCc2ccc(O)cc2C1 [7-hydroxy-PIPAT],99.8,110,104,108,101,111,97.3,90.5,102,105,102,104,97.8,101,98.4,98,96.7,101,103,98.3,102,104,103,103,96,> 10,> 10,> 10,> 10,> 10,0,0,0,0,0
O=C(O)c1ccccc1NC(=O)N1CCC(c2ccccc2C(F)(F)F)CC1 [A-1120],100,93.2,98.4,96.8,84.2,102,96.5,100,94.1,106,88.2,96.1,107,103,108,104,104,102,100,98.7,101,100,93.1,95.4,93.5,> 10,> 10,> 10,> 10,> 10,0.6,0,0,0,0
Nc1ncnc2nc(-c3ccc(N4CCOCC4)nc3)cc(-c3cccc(Br)c3)c12 [ABT-702],107,99.9,102,104,93.4,103,83.3,112,95.3,100,104,96.4,96.5,108,89.6,106,103,104,99.8,101,96.1,100,95.2,94.4,88.1,> 10,> 10,> 10,> 10,> 10,0,0,0,0,0
